Results taken from US6500455B1, “Tolperison-containing, pharmaceutical preparation for oral administration” (Sanochemia Pharmazeutika, priority 1999, dated 2002).

Columns and labels:
[1] = effectiveness of the Tolperison isomers; settings: comparison of (−) isomer, (+) isomer and racemic mixtures
[2] = blood (of humans); active ingredient present as 50/50 racemate; cited from earlier work

In the case of `Cc1ccc(C(=O)C(C)CN2CCCCC2)cc1` (single isomer, unassigned; (+)) [(+) isomer], the “effectiveness of the isomers compared with each other” value [1] is listed as “almost identically effective” and the “proportion of the isomer present in the blood” value [2] is listed as ≤ 10%.

In the case of `Cc1ccc(C(=O)C(C)CN2CCCCC2)cc1` (single isomer, unassigned; (-)) [(−) isomer, 2,4′-dimethyl-3-piperidonopropriophenone], the “effectiveness of the isomers compared with each other” value [1] is given as “almost identically effective” and the “proportion of the isomer present in the blood” value [2] is given as “up to 90%”.
